# Data reported in US20030119733A1, “Compositions and methods for inhibiting hepatocyte invasion by malarial sporozoites” (New York University, priority 1992, published 2003).
# “And” between values parts separate entries of the source, which are not always exact repeats. Equal values may be shown once. Read-outs that look alike come from different tables or passages of the source. Where no end group is shown, it is not given here.
# Columns and labels:
# P. berghei sporozoites [1] = format: cell-based; conditions: for Number of EEF (Mean ± SD): schizonts per 20 fields
# Procedure: Assays were conducted according to the methods described by Hollingdale, M. R. et al.. Science 213:1021-1022, 1981. and Sinden, R. E., WHO Bulletin MOS (Suppl.) 68:115-125, 1990. HepG2 cells were plated in FCS-MEM at a density of 0.5×10^6 cells/ml in 8-chamber slides (4808 Lab-tek, Naperville, Ill.) 24 hr. before each experiment. […] For antibody inhibition experiments, sporozoites were preincubated in FCS-MEM alone, or FCS-MEM containing anti-Region II IgG, or with preimmune sera IgG for 30 min. at 4° C. Sporozoites (5×10^4), in a volume of 100 μl, were added to each well. The medium was replenished after 2 hr. and changed after 18 and 28 hr. Each point was performed in quadruplicate. In experiments designed to evaluate the toxicity of the peptides and antisera, sporozoites were first incubated with the HepG2 cells for 2 hr in FCS-MEM. FCS-MEM containing the peptide at a concentration of 250 μg/ml (or the IgGs at a concentration of 700 μg/ml) was then added to the cultures, and incubation proceeded for two additional hours. As above, FCS-MEM was changed after 18 and 28 hr. All cultures were fixed with cold methanol containing 0.3% H2O2 after 48 hr. […] The number of exoerythrocytic forms in 20 fields was counted in a double-blind fashion under a 20× light microscope objective.
# The number of exoerythrocytic forms (“EEF”) of the parasite that developed in the HepG2 cells were counted two days later. […] In Table 2, “Number of EEF” represents the average number of schizonts counted per 20 fields under 20-times magnification of a light microscope in quadruplicate wells; P values were calculated by one-way analysis of variances corrected by the Bonferroni method using the commercially available computer program GraphPAD Instat, version 1.14, copyright 1990. […]
# [2] = test system: binding of CS27IVC to liver sections; test: Peptide inhibition of CS27IVC binding to frozen liver sections; design: species or system rat; conditions: peptide preincubation, up to 500 μg/ml
# Procedure: The procedure was carried out essentially as described by Dukor P. et al., Proc. Natl. Acad. Sci. USA 67:991-997, 1970 and Imai Y. et al., J. Cell. Biol. 111:1225-1232, 1990. Rats were euthanized with CO2. Small pieces of the liver, spleen, heart, brain and lung were removed, snap frozen in liquid nitrogen, embedded in Tissue Tek O.C.T. (Miles, Inc., Naperville, Ill.), and cut into 5 μm sections. Sections were dried for 30 min., fixed for 10 min. in 4% paraformaldehyde, rinsed three times with phosphate-buffered saline (PBS), and either used immediately or stored at 4° C. in 1% BSA, 0.5% Tween, PBS (BSA/TPBS). After blocking with 100 mM glycine (pH 7.2) and with BSA/TPBS, the sections were sequentially incubated at 37° C. with recombinant proteins for 1 hr, 10 μg/ml MAb 2A10 for 45 min., and rat anti-mouse immunoglobulin conjugated to fluorescein isothiocyanate (Boehringer Mannheim, Indianapolis, Ind.) for 45 min. The slides were counterstained for 10 min. with 0.3% Evans blue, rinsed extensively in PBS, and finally observed under a fluorescence microscope. For peptide inhibition experiments, the sections were first incubated with the peptide at various concentrations in BSA/TPBS for 1 hour at 37° C., washed six times with BSA/TPBS, and then stained with 2.5 μg/ml CS recombinant protein as described above. In a few experiments, the tissues were fixed for 10 min. with methanol, acetone, or 4% paraformaldehyde containing 0.5% glutaraldehyde.
# [3] = target: T1, P.berghei CS protein binding to sulfatide (Plasmodium berghei, UniProt P06915); test: Inhibition of binding of P.berghei CS protein to sulfatide
# T1 construct: as well as the native P. berghei CS protein; endogenous in cells; host or cells: P. berghei sporozoites (extract, 35,000 sporozoite equivalents/well)
# Procedure: (§1) Solid phase binding assays: Thirty μl of lipids or steroids dissolved in methanol (20-250 μg/ml) were dried into wells of microassay plates (Cat.# 3911—Falcon—Oxnard, Calif.). The plates were then blocked with 1% BSA/PBS pH 7.4 (BSA/PBS) for 30 minutes. Wells were incubated with recombinant protein (or with parasite extract) in PBS/BSA for 1 hour, washed 3 times with BSA/PBS, incubated for 1 hour with monoclonal antibodies 2F2 or 2A10 in BSA/PBS, washed 3 times, and then incubated with (10^5 cpm/well) ^125I protein A (Amersham Corp., Arlington Hts., Ill.). In the case of the P. berghei CS protein, wells were incubated with ^125I labelled mAb 3D11. Wells were washed again and the bound radioactive protein was counted in an LKB gamma-counter (model #1260, Pharmacia, Inc., Gaithersburg, Md.). For inhibition assays, the recombinant proteins were mixed with dilutions of the various polymers in BSA/PBS, the mixture was loaded into the wells of the microtiter plates, and the binding assay performed as above. See also, Roberts, et al. J. Biol. Chem. 260:9405-9411, 1985.
# [4] = test system: Vivax-2 binding to cholesterol-sulfate; test: Inhibition of binding of Vivax-2 to cholesterol-sulfate; design: species or system P. vivax
# Procedure: as §1
# [5] = test system: binding of CSFZ(Cys) to HepG2 cells; test: Inhibition of CS binding to HepG2 cells by glycosaminoglycans; design: species or system human; conditions: preincubated with 5 μg/ml CSFZ(Cys); FIG. 9
# Procedure: 10^5 HepG2 cells were deposited in 96-well Removawell tissue culture plates and allowed to grow overnight in MEM (Gibco) containing 10% FCS, 1 mM L-glutamine (Gibco), 3 mg/ml glucose (Sigma) and 1× non-essential amino acids (Gibco). The HepG2 cells were fixed with 4% paraformaldehyde in TBS (50 mM Tris-HCl, pH 7.5, 137 mM NaCl, 2 mM KCl), were washed 3 times with TBS, and were stored at 4° C. in BSA/TBS until use. CSFZ(Cys) at 5 μg/ml was incubated with increasing amounts of the presumed inhibitors at 37° C. for 15 min. Fifty μl of these mixtures were added to the cells, incubated for 1 hr at 37° C., washed 3× with TBS/0.05% Tween and then sequentially incubated with 50 μl of mAb 2A10 at a concentration of 10 μg/ml in TBS/BSA buffer for 30 min at 37° C., and 1:5000 dilution of goat anti-mouse IgG conjugated to alkaline phosphatase (Boehringer) for 30 minutes. […] After 15 minutes, the fluorescence was measured in a Fluoroskan II plate reader (ICN).
# Proteoglycans were preincubated with 5 μg/ml of CSFZ(Cys) and then were added to paraformaldehyde-fixed HepG2 cells. […] Each point represents the mean of triplicates. Percent inhibition was calculated by comparison to CSFZ(Cys) preincubated in medium alone.
# [6] = test system: Vivax-2 binding to sulfatide; test: Inhibition of binding of Vivax-2 to sulfatide; design: species or system P. vivax
# Procedure: as §1
# P. berghei sporozoites [7] = test: Infection assay of HepG2 cells with polymers; format: cell-based
# Procedure: Infection assay: Semiconfluent monolayers of HepG2 cells were grown in 10% FCS/MEM on 8 chamber slides (#4808 Lab-tek -Naperville, Ill.) for 24 hours prior to each experiment. Sporozoites were pre-incubated in media alone or with the various polymers for 15 minutes at 4° C. 5×10^4 sporozoites, in a volume of 10 μl, were added per chamber. After 4 hours of incubation at 37° C., the medium containing the sporozoites was gently aspirated, and 0.5 ml MEM/10% FCS was added. Fresh medium was added at 18 hours and 28 hours, and then cells were fixed with methanol containing 0.3% H2O2 at 48 hours. After fixation, the wells were blocked with 10% FCS/PBS and were incubated with 10 μg/ml of mAb 2E6. Binding of the mAb was detected with a polyclonal goat anti-mouse Ig conjugated to horseradish peroxidase. […] The parasites in each well are counted under a 40× light microscope objective.
# The cells were fixed and stained with mAb 2E6, followed by goat-anti-mouse linked to horseradish peroxidase. Numbers represent schizonts counted/20 fields under 40× magnification in a light microscope.
# [8] = target: hepatocyte plasma membrane receptor for the circumsporozoite protein on human hepatocytes and HepG2; test: competition: fixed HepG2 cells preincubated with peptide, washed, then CSFZ (Cys) 2.5 µg/ml (competitor); cell ELISA
# [9] = peptide 500 μg/ml present during invasion
molecule,measurement,setting,value
PGSANKPKDELDYANIEKK [Pf4],Number of EEF (Mean ± SD),P. berghei sporozoites [1]; peptide 250 μg/ml present during invasion,122.5 ± 13.4 and 123.7 ± 20.1 and 105.0 ± 12.5
same,Percentage of Inhibition,P. berghei sporozoites [1]; [9],0.0%
same,Number of EEF (Mean ± SD),P. berghei sporozoites [1]; [9],375.2 ± 52
same,inhibition of the binding of CS27IVC to liver sections,[2],failed to inhibit
dextran-sulfate,% INHIBITION,[3]; inhibitor 1 μg/ml,31.2%
same,% INHIBITION,[3]; inhibitor 10 μg/ml,63%
same,% INHIBITION,[3]; inhibitor 100 μg/ml,79%
same,% INHIBITION,[4]; inhibitor 1 μg/ml,12.2%
same,% INHIBITION,[4]; inhibitor 10 μg/ml,21.1%
same,% INHIBITION,[4]; inhibitor 100 μg/ml,25.6%
same,% INHIBITION,[4]; inhibitor 1 mg/ml,33%
same,% INHIBITION,[4]; inhibitor 10 mg/ml,40.5%
same,% INHIBITION,"[4]; inhibitor 10 mg/ml, listed as dextran-sulfate",less than 50%
same,inhibition of CS binding to HepG2 cells,[5],inhibited
same,% INHIBITION,[6]; inhibitor 1 μg/ml,19%
same,% INHIBITION,[6]; inhibitor 10 μg/ml,70.2%
same,development of the liver stages,"P. berghei sporozoites [7]; added after 4 hours of contact, after invasion",not affected
same,invasion of hepatocytes by sporozoites in vitro,P. berghei sporozoites [7]; no conditions given,inhibited
same,effect on sporozoite invasion,"P. berghei sporozoites [7]; present during invasion, 5-50 μg/ml",inhibited invasion in a dose-dependent fashion
CGNGIQVRIKPGSANKPKDE [Pf2],IC50,[8],75 µg/mL
